Experimental findings from PMC11378298 (ACS Chemical Neuroscience, 2024) are described below.

Where a name gives a salt, the structure may show the parent alone.

The first assay deals with GSK-3β (Homo sapiens, UniProt P49841). Kind of assay: biochemical.
Sequence of GSK-3β (P49841 whole entry): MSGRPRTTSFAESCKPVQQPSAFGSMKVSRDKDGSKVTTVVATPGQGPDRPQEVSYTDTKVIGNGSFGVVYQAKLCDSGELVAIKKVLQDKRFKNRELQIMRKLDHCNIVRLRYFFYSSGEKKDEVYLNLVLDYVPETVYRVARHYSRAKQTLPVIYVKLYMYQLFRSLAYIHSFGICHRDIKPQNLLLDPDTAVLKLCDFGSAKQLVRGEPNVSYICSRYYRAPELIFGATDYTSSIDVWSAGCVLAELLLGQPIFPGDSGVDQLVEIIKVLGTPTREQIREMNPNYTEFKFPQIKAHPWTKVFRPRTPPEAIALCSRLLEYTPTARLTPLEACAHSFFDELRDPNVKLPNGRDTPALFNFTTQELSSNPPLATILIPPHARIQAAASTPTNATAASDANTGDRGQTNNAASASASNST
Settings: not given
The method, then: We evaluated the pharmacological properties of the compounds in vitro against GSK-3β using the GSK-3β Kinase Enzyme System followed by ADP-Glo bioluminescent assay.[50] The principle of the assay is to determine the amount of ADP formed from ATP in the kinase reaction. […] Additionally, compounds 11 and 36 in complex with GSK-3β were analyzed by the proteins’ melting temperature determination using Thermal Shift Assay (see Figure S1 in the SI).
The inhibitory activities of the tested compounds against the GSK-3β human recombinant kinase were measured using Promega’s GSK-3β Kinase Enzyme System (Promega; Madison, WI, USA), according to the provided manufacturer’s instruction, using the low-volume white polystyrene 384-well plates. The ADP-Glo Assay (Promega; Madison, WI, USA) was used for bioluminescent detection of the kinase activity. Tested compounds were prepared as 1 mM stock solutions in DMSO and diluted with the Kinase Assay Buffer before use (40 mM Tris, pH 7.5, enriched with 50 μM dithiothreitol; DTT) to obtain the desired compounds’ concentrations. The kinase enzyme, GSK-3β-substrate (derived from human muscle glycogen synthase 1), and ATP were also diluted in the assay buffer before use. At first, GSK-3β (10 ng per well) was incubated with the tested sample (10 μM in well) for 5 min. In the case of blank wells, the DMSO solution (1% in well) was used instead of the target samples’ solutions. After the incubation period, ATP (25 μM in well) and GSK-3β-substrate (0.2 μg/μL in well) were added to start the enzymatic reaction. The reaction mixture was kept at room temperature for 1 h, followed by the addition of the ADP-Glo reagent, to terminate the kinase reaction and deplete any remaining ATP. After the following 40 min—a second reagent (Kinase Detection Reagent) was applied to convert the obtained ADP to ATP and to generate light from the newly synthesized ATP using a luciferase/luciferin reaction. The mixture was kept for another 30 min at room temperature, then the luminescence was measured. Based on equation 100 – (S/B) × 100 (where S and B were the respective enzyme activities with and without the tested sample, respectively) the percent of inhibition of GSK-3β for each compound was calculated. […] Calculations were made using nonlinear regression (GraphPad Prism 9; GraphPad Software, San Diego, CA, USA) by plotting the residual enzyme activities against the applied inhibitor concentration. […] Each data point was collected in triplicate.
On to `O=C(Nc1cc(C2=CCN(C[C@@H]3CCCN3)C2)ccn1)C1CC1` [(S)-15, (S)-N-(4-(1-(Pyrrolidin-2-ylmethyl)-2,5-dihydro-1H-pyrrol-3-yl)pyridin-2-yl)cyclopropanecarboxamide Hydrochloride], for which it took 11300 ± 1120 nM to reach half-maximal inhibition (IC50). Same read-out and setting: the result for `CC(=O)N1CC=C(c2ccnc(NC(=O)C3CC3)c2)C1` [Compound 10, N-(4-(1-Acetyl-2,5-dihydro-1H-pyrrol-3-yl)pyridin-2-yl)cyclopropanecarboxamide] reads 599 ± 11 nM. On the same count and under the same terms, the result for `NCCC(=O)N1CC=C(c2ccnc(NC(=O)C3CC3)c2)C1` [Compound 12, N-(4-(1-(3-Aminopropanoyl)-2,5-dihydro-1H-pyrrol-3-yl)pyridin-2-yl)cyclopropanecarboxamide Hydrochloride] reads 1360 ± 110 nM; that for `NCCCC(=O)N1CC=C(c2ccnc(NC(=O)C3CC3)c2)C1` [Compound 13, N-(4-(1-(4-Aminobutanoyl)-2,5-dihydro-1H-pyrrol-3-yl)pyridin-2-yl)cyclopropanecarboxamide Hydrochloride], 5490 ± 363 nM; that for `O=C(Nc1cc(C2=CCN(C(=O)[C@@H]3CCCN3)C2)ccn1)C1CC1` [Compound 14, N-(4-(1-Prolyl-2,5-dihydro-1H-pyrrol-3-yl)pyridin-2-yl)cyclopropanecarboxamide], 7720 ± 543 nM. On to `CS(=O)(=O)N1CC=C(c2ccnc(NC(=O)C3CC3)c2)C1` [Compound 16, N-(4-(1-(Methylsulfonyl)-2,5-dihydro-1H-pyrrol-3-yl)pyridin-2-yl)cyclopropanecarboxamide], for which the IC50 is 6200 ± 163 nM. `CCCS(=O)(=O)N1CC=C(c2ccnc(NC(=O)C3CC3)c2)C1` [Compound 17, N-(4-(1-(Propylsulfonyl)-2,5-dihydro-1H-pyrrol-3-yl)pyridin-2-yl)cyclopropanecarboxamide] came in with an IC50 of 9270 ± 467 nM. Same read-out and setting: the result for `O=C(Nc1cc(C2=CCN(S(=O)(=O)C3CCCC3)C2)ccn1)C1CC1` [Compound 18, N-(4-(1-(Cyclopentylsulfonyl)-2,5-dihydro-1H-pyrrol-3-yl)pyridin-2-yl)cyclopropanecarboxamide] reads 3250 ± 83 nM; that for `NCCS(=O)(=O)N1CC=C(c2ccnc(NC(=O)C3CC3)c2)C1` [Compound 19, N-(4-(1-((2-Aminoethyl)sulfonyl)-2,5-dihydro-1H-pyrrol-3-yl)pyridin-2-yl)cyclopropanecarboxamide Hydrochloride], 1370 ± 44 nM. The same measure, in the same setting: the result for `NCCCS(=O)(=O)N1CC=C(c2ccnc(NC(=O)C3CC3)c2)C1` [Compound 20, N-(4-(1-((3-Aminopropyl)sulfonyl)-2,5-dihydro-1H-pyrrol-3-yl)pyridin-2-yl)cyclopropanecarboxamide Hydrochloride] reads 9990 ± 406 nM. `N#Cc1ccc(-c2ccnc(NC(=O)C3CC3)c2)cc1` [Compound 22, N-(4-(4-Cyanophenyl)pyridin-2-yl)cyclopropanecarboxamide] gave an IC50 of 1130 ± 37 nM. `N#Cc1cccc(-c2ccnc(NC(=O)C3CC3)c2)c1` [Compound 23, N-(4-(3-Cyanophenyl)pyridin-2-yl)cyclopropanecarboxamide]: it took 952 ± 21 nM to reach half-maximal inhibition (IC50). In turn, `N#Cc1ccc(-c2ccnc(NC(=O)C3CC3)c2)cn1` [Compound 24, N-(6-Cyano-[3,4′-bipyridin]-2′-yl)cyclopropanecarboxamide] came in with an IC50 of 212 ± 7 nM. For `N#Cc1ccc(-c2ccnc(NC(=O)C3CC3)c2)s1` [Compound 26, N-(4-(5-Cyanothiophen-2-yl)pyridin-2-yl)cyclopropanecarboxamide], the half-maximal inhibitory concentration (IC50) was 146 ± 5 nM. This IC50 and that of the molecule before are within 1.5-fold of each other.

The same assay, now with this note: read-out: Percent of enzyme inhibition at 10 μM of inhibitor concentration.
In the case of `O=C(Nc1cc(C2=CCN(C[C@H]3CCCN3)C2)ccn1)C1CC1` [(R)-15, (R)-N-(4-(1-(Pyrrolidin-2-ylmethyl)-2,5-dihydro-1H-pyrrol-3-yl)pyridin-2-yl)cyclopropanecarboxamide hydrochloride], the inhibition at 10 µM came out at 17.8 ± 1.7%.

In the case of `N#Cc1cc(-c2ccnc(NC(=O)C3CC3)c2)ccn1` [Compound 25, N-(2′-Cyano-[4,4′-bipyridin]-2-yl)cyclopropanecarboxamide], the inhibition at 10 µM amounted to 34.4 ± 2.8%.
